# According to ChEMBL document CHEMBL3044749, “Synthesis, characterization, in vitro hydrolysis and pharmacodynamic profiles of potential novel mutual prodrugs of N-(2,3-xylyl anthranilic acid)” (Med Chem Res, 2013):
# Tests used:
# Mus musculus [1] = experiment: Analgesic activity in Swiss Mus musculus (mouse) assessed as inhibition of acetic acid-induced abdominal writhing at 27.65 mg/kg, po administered 1 hr prior to acetic acid injection measured for 10 min; type: functional; conditions: Abdomen
# [2] = Half life in simulated intestinal fluid at 37 degC at pH 7.4 by UV spectrophotometer analysis; type: ADME
# [3] = Half life in simulated gastrointestinal fluid at 37 degC at pH 1.2 by UV spectrophotometer analysis; type: ADME
# Rattus norvegicus [4] = experiment: Gastrointestinal toxicity in Wistar albino Rattus norvegicus (rat) assessed as ulcerogenicity index at 27.65 mg/kg, po administered for 7 days measured on day 8 (reference value: 0 no unit); type: organism-based; set-up: dose 27.65 mg/kg, route oral; conditions: in vivo, 168 h
# Rattus norvegicus [5] = experiment: Anti-inflammatory activity in Wistar albino Rattus norvegicus (rat) assessed as inhibition of carrageenan-induced paw edema at 27.65 mg/kg, po administered 1 hr prior to carrageenan injection measured after 6 hr by mercury plethysmometer (reference value: 0%); type: functional
# Rattus norvegicus [6] = experiment: Anti-inflammatory activity in Wistar albino Rattus norvegicus (rat) assessed as inhibition of carrageenan-induced paw edema at 27.65 mg/kg, po administered 1 hr prior to carrageenan injection measured after 2 hr by mercury plethysmometer (reference value: 0%); type: functional
# Rattus norvegicus [7] = experiment: Anti-inflammatory activity in Wistar albino Rattus norvegicus (rat) assessed as inhibition of carrageenan-induced paw edema at 27.65 mg/kg, po administered 1 hr prior to carrageenan injection measured after 1 hr by mercury plethysmometer (reference value: 0%); type: functional
# Rattus norvegicus [8] = experiment: Anti-inflammatory activity in Wistar albino Rattus norvegicus (rat) assessed as inhibition of carrageenan-induced paw edema at 27.65 mg/kg, po administered 1 hr prior to carrageenan injection measured after 4 hr by mercury plethysmometer (reference value: 0%); type: functional
# Rattus norvegicus [9] = experiment: Anti-inflammatory activity in Wistar albino Rattus norvegicus (rat) assessed as inhibition of carrageenan-induced paw edema at 27.65 mg/kg, po administered 1 hr prior to carrageenan injection measured after 8 hr by mercury plethysmometer (reference value: 0%); type: functional
# Rattus norvegicus [10] = experiment: Anti-inflammatory activity in Wistar albino Rattus norvegicus (rat) assessed as inhibition of carrageenan-induced paw edema at 27.65 mg/kg, po administered 1 hr prior to carrageenan injection measured after 3 hr by mercury plethysmometer (reference value: 0%); type: functional
# [11] = Stability of the compound assessed as prodrug hydrolysis in non-enzymatic simulated gastric fluid at 37 degC at pH 1.2 measured for 2 hr by UV spectrophotometer analysis; type: physicochemical; conditions: simulated gi fluid, pH 1.2, 2 h
# Rattus norvegicus [12] = experiment: Gastrointestinal toxicity in Wistar albino Rattus norvegicus (rat) assessed as ulcerogenicity index at 24.65 mg/kg, po administered for 7 days measured on day 8 (reference value: 0 no unit); type: organism-based; set-up: dose 24.65 mg/kg, route oral; conditions: in vivo, 168 h
# Rattus norvegicus [13] = experiment: Anti-inflammatory activity in Wistar albino Rattus norvegicus (rat) assessed as inhibition of carrageenan-induced paw edema at 24.65 mg/kg, po administered 1 hr prior to carrageenan injection measured after 1 hr by mercury plethysmometer (reference value: 0%); type: functional
# Mus musculus [14] = experiment: Analgesic activity in Swiss Mus musculus (mouse) assessed as inhibition of acetic acid-induced abdominal writhing at 24.65 mg/kg, po administered 1 hr prior to acetic acid injection measured for 10 min; type: functional; conditions: Abdomen
# Rattus norvegicus [15] = experiment: Anti-inflammatory activity in Wistar albino Rattus norvegicus (rat) assessed as inhibition of carrageenan-induced paw edema at 24.65 mg/kg, po administered 1 hr prior to carrageenan injection measured after 8 hr by mercury plethysmometer (reference value: 0%); type: functional
# Rattus norvegicus [16] = experiment: Anti-inflammatory activity in Wistar albino Rattus norvegicus (rat) assessed as inhibition of carrageenan-induced paw edema at 24.65 mg/kg, po administered 1 hr prior to carrageenan injection measured after 3 hr by mercury plethysmometer (reference value: 0%); type: functional
# Rattus norvegicus [17] = experiment: Anti-inflammatory activity in Wistar albino Rattus norvegicus (rat) assessed as inhibition of carrageenan-induced paw edema at 24.65 mg/kg, po administered 1 hr prior to carrageenan injection measured after 6 hr by mercury plethysmometer (reference value: 0%); type: functional
# Rattus norvegicus [18] = experiment: Anti-inflammatory activity in Wistar albino Rattus norvegicus (rat) assessed as inhibition of carrageenan-induced paw edema at 24.65 mg/kg, po administered 1 hr prior to carrageenan injection measured after 2 hr by mercury plethysmometer (reference value: 0%); type: functional
# Rattus norvegicus [19] = experiment: Anti-inflammatory activity in Wistar albino Rattus norvegicus (rat) assessed as inhibition of carrageenan-induced paw edema at 24.65 mg/kg, po administered 1 hr prior to carrageenan injection measured after 4 hr by mercury plethysmometer (reference value: 0%); type: functional
# Rattus norvegicus [20] = experiment: Anti-inflammatory activity in Wistar albino Rattus norvegicus (rat) assessed as inhibition of carrageenan-induced paw edema at 23 mg/kg, po administered 1 hr prior to carrageenan injection measured after 1 hr by mercury plethysmometer (reference value: 0%); type: functional
# Rattus norvegicus [21] = experiment: Anti-inflammatory activity in Wistar albino Rattus norvegicus (rat) assessed as inhibition of carrageenan-induced paw edema at 23 mg/kg, po administered 1 hr prior to carrageenan injection measured after 4 hr by mercury plethysmometer (reference value: 0%); type: functional
# Mus musculus [22] = experiment: Analgesic activity in Swiss Mus musculus (mouse) assessed as inhibition of acetic acid-induced abdominal writhing at 23 mg/kg, po administered 1 hr prior to acetic acid injection measured for 10 min; type: functional; conditions: Abdomen
# Rattus norvegicus [23] = experiment: Anti-inflammatory activity in Wistar albino Rattus norvegicus (rat) assessed as inhibition of carrageenan-induced paw edema at 23 mg/kg, po administered 1 hr prior to carrageenan injection measured after 8 hr by mercury plethysmometer (reference value: 0%); type: functional
# Rattus norvegicus [24] = experiment: Gastrointestinal toxicity in Wistar albino Rattus norvegicus (rat) assessed as ulcerogenicity index at 23 mg/kg, po administered for 7 days measured on day 8 (reference value: 0 no unit); type: organism-based; set-up: dose 23 mg/kg, route oral; conditions: in vivo, 168 h
# Rattus norvegicus [25] = experiment: Anti-inflammatory activity in Wistar albino Rattus norvegicus (rat) assessed as inhibition of carrageenan-induced paw edema at 23 mg/kg, po administered 1 hr prior to carrageenan injection measured after 2 hr by mercury plethysmometer (reference value: 0%); type: functional
# Rattus norvegicus [26] = experiment: Anti-inflammatory activity in Wistar albino Rattus norvegicus (rat) assessed as inhibition of carrageenan-induced paw edema at 23 mg/kg, po administered 1 hr prior to carrageenan injection measured after 3 hr by mercury plethysmometer (reference value: 0%); type: functional
# Rattus norvegicus [27] = experiment: Anti-inflammatory activity in Wistar albino Rattus norvegicus (rat) assessed as inhibition of carrageenan-induced paw edema at 23 mg/kg, po administered 1 hr prior to carrageenan injection measured after 6 hr by mercury plethysmometer (reference value: 0%); type: functional
# Rattus norvegicus [28] = experiment: Gastrointestinal toxicity in Wistar albino Rattus norvegicus (rat) assessed as ulcerogenicity index at 13 mg/kg, po administered for 7 days measured on day 8 (reference value: 0 no unit); type: organism-based; set-up: dose 13 mg/kg, route oral; conditions: in vivo, 168 h
# Rattus norvegicus [29] = experiment: Anti-inflammatory activity in Wistar albino Rattus norvegicus (rat) assessed as inhibition of carrageenan-induced paw edema at 13 mg/kg, po administered 1 hr prior to carrageenan injection measured after 3 hr by mercury plethysmometer (reference value: 0%); type: functional
# Rattus norvegicus [30] = experiment: Anti-inflammatory activity in Wistar albino Rattus norvegicus (rat) assessed as inhibition of carrageenan-induced paw edema at 13 mg/kg, po administered 1 hr prior to carrageenan injection measured after 1 hr by mercury plethysmometer (reference value: 0%); type: functional
# Rattus norvegicus [31] = experiment: Anti-inflammatory activity in Wistar albino Rattus norvegicus (rat) assessed as inhibition of carrageenan-induced paw edema at 13 mg/kg, po administered 1 hr prior to carrageenan injection measured after 6 hr by mercury plethysmometer (reference value: 0%); type: functional
# Rattus norvegicus [32] = experiment: Anti-inflammatory activity in Wistar albino Rattus norvegicus (rat) assessed as inhibition of carrageenan-induced paw edema at 13 mg/kg, po administered 1 hr prior to carrageenan injection measured after 8 hr by mercury plethysmometer (reference value: 0%); type: functional
# Mus musculus [33] = experiment: Analgesic activity in Swiss Mus musculus (mouse) assessed as inhibition of acetic acid-induced abdominal writhing at 13 mg/kg, po administered 1 hr prior to acetic acid injection measured for 10 min; type: functional; conditions: Abdomen
# Rattus norvegicus [34] = experiment: Anti-inflammatory activity in Wistar albino Rattus norvegicus (rat) assessed as inhibition of carrageenan-induced paw edema at 13 mg/kg, po administered 1 hr prior to carrageenan injection measured after 2 hr by mercury plethysmometer (reference value: 0%); type: functional
# Rattus norvegicus [35] = experiment: Anti-inflammatory activity in Wistar albino Rattus norvegicus (rat) assessed as inhibition of carrageenan-induced paw edema at 13 mg/kg, po administered 1 hr prior to carrageenan injection measured after 4 hr by mercury plethysmometer (reference value: 0%); type: functional
structure (smiles),measurement,setting,value
Cc1cccc(Nc2ccccc2C(=O)NCC(=O)OCc2c(C(C)C)c(=O)n(-c3ccccc3)n2C)c1C,inhibition in vivo at 27.65 mg/kg,Mus musculus [1],63.9%
same,half-life,[2],8.98 h
same,half-life,[3],18.7 h
same,UI,Rattus norvegicus [4],1
same,inhibition in vivo at 27.65 mg/kg,Rattus norvegicus [5],38.5%
same,inhibition in vivo at 27.65 mg/kg,Rattus norvegicus [6],77.2%
same,inhibition in vivo at 27.65 mg/kg,Rattus norvegicus [7],23.3%
same,inhibition in vivo at 27.65 mg/kg,Rattus norvegicus [8],83.7%
same,inhibition in vivo at 27.65 mg/kg,Rattus norvegicus [9],10%
same,inhibition in vivo at 27.65 mg/kg,Rattus norvegicus [10],85.7%
same,Stability,[11],Stable
Cc1cccc(Nc2ccccc2C(=O)OCc2c(C(C)C)c(=O)n(-c3ccccc3)n2C)c1C,UI,Rattus norvegicus [12],0.25
same,inhibition in vivo at 24.65 mg/kg,Rattus norvegicus [13],13.3%
same,inhibition in vivo at 24.65 mg/kg,Mus musculus [14],81.7%
same,inhibition in vivo at 24.65 mg/kg,Rattus norvegicus [15],44%
same,half-life,[2],7.37 h
same,half-life,[3],16.2 h
same,inhibition in vivo at 24.65 mg/kg,Rattus norvegicus [16],71.4%
same,inhibition in vivo at 24.65 mg/kg,Rattus norvegicus [17],62.9%
same,inhibition in vivo at 24.65 mg/kg,Rattus norvegicus [18],59.1%
same,Stability,[11],Stable
same,inhibition in vivo at 24.65 mg/kg,Rattus norvegicus [19],72.6%
CC(C)c1c(CO)n(C)n(-c2ccccc2)c1=O [3-HYDROXYMETHYL PROPYPHENAZONE],inhibition in vivo at 23 mg/kg,Rattus norvegicus [20],31.5%
same,inhibition in vivo at 23 mg/kg,Rattus norvegicus [21],31.2%
same,inhibition in vivo at 23 mg/kg,Mus musculus [22],78.3%
same,inhibition in vivo at 23 mg/kg,Rattus norvegicus [23],12%
same,UI,Rattus norvegicus [24],1.25
same,inhibition in vivo at 23 mg/kg,Rattus norvegicus [25],46.4%
same,inhibition in vivo at 23 mg/kg,Rattus norvegicus [26],40.2%
same,inhibition in vivo at 23 mg/kg,Rattus norvegicus [27],23.7%
Cc1cccc(Nc2ccccc2C(=O)O)c1C [MEFENAMIC ACID],UI,Rattus norvegicus [28],3.17
same,inhibition in vivo at 13 mg/kg,Rattus norvegicus [29],53.1%
same,inhibition in vivo at 13 mg/kg,Rattus norvegicus [30],38.4%
same,inhibition in vivo at 13 mg/kg,Rattus norvegicus [31],24.3%
same,inhibition in vivo at 13 mg/kg,Rattus norvegicus [32],20%
same,inhibition in vivo at 13 mg/kg,Mus musculus [33],61.1%
same,inhibition in vivo at 13 mg/kg,Rattus norvegicus [34],52.2%
same,inhibition in vivo at 13 mg/kg,Rattus norvegicus [35],35.6%
